Source: article PMC5714280 (Bioorganic & medicinal chemistry letters, 2017)

Experiments:
MDA-MB-468 cells = test: Cell viability assay; format: cell-based; conditions: Cell Titer Glo
[1] = Stability in solution and photo-stability; format: physicochemical; conditions: for photo-stability: exposed to normal fluorescent light, aryl iodide
androgen receptor (AR) = target: T1, androgen receptor (AR) (Homo sapiens, UniProt P10275); test: Androgen reporter assay; format: cell-based
T1 sequence (P10275 1-920): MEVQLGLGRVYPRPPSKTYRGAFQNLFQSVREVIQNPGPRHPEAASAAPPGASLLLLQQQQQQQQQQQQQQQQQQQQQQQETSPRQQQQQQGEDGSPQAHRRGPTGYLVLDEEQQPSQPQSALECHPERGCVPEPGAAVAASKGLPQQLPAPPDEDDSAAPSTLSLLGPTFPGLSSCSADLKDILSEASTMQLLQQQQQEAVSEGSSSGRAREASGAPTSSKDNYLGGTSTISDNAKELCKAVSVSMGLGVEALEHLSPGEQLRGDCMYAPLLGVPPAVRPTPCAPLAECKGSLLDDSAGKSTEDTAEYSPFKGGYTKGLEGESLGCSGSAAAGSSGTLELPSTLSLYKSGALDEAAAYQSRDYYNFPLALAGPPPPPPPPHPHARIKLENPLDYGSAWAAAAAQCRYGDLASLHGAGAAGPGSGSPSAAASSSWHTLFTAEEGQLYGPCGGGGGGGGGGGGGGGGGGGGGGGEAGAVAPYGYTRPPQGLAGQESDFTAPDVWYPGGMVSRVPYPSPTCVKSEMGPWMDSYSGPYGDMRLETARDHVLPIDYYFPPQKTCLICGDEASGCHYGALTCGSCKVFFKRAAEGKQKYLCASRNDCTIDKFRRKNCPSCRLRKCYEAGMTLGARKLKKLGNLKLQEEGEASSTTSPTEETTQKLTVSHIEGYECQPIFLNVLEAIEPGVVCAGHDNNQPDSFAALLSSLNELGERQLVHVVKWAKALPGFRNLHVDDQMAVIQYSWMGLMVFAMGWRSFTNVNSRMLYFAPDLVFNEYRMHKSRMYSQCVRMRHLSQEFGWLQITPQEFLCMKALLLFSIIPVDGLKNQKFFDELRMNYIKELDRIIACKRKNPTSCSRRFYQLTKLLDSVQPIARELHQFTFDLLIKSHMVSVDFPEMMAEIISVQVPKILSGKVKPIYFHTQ

Sigma1 = Sigma1 (Homo sapiens, UniProt Q99720); test: In vitro radio-ligand binding assay using membranes from MDA-MB-468 cancer cells; conditions: for fold decrease in binding affinity compared to IPAG: relative to IPAG
Plasma stability, mouse = format: in vitro ADME
Plasma stability, human = format: in vitro ADME
[2] = Mouse pharmacokinetics, IV and oral, plasma levels; format: in vivo, Male Swiss Mice; conditions: for V / AUC / clearance: 2 mg/kg IV; for AUC / clearance: male, Swiss, mouse, plasma, iv, 2 mg/kg; for AUC: AUC0−¥; for clearance: CL
[3] = Mouse pharmacokinetic exposure, IP, plasma and brain; conditions: male, Swiss, brain, 10 mg/kg

Sigma1, sequence (Q99720 whole entry): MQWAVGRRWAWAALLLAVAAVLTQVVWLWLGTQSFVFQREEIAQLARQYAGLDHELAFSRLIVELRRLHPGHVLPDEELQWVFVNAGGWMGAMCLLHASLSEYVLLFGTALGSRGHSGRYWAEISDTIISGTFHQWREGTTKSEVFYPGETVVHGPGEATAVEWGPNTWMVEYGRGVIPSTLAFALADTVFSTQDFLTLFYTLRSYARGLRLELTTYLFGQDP

Structure (SMILES) | antiproliferative activity, potency (MDA-MB-468 cells) [nM] | photo-stability [1] | fold decrease in binding affinity compared to IPAG (Sigma1) | acute cytotoxicity (MDA-MB-468 cells) | Plasma Stability Mouse (Plasma stability, mouse) [h] | Plasma Stability Human (Plasma stability, human) [h] | other results
NC(=NC12CC3CC(CC(C3)C1)C2)Nc1ccc(I)cc1 [IPAG, (1-adamantan-1-yl)-3-(4-iodophenyl)guanidine, reference compound] | 3000 to 20000 | particularly unstable when exposed to normal fluorescent light |  |  |  |  | stability in solution ([1]; in solution): unstable when in solution
C[C@]12CC[C@H](O)CC1=CC[C@@H]1[C@@H]2CC[C@]2(C)C(c3cccnc3)=CC[C@@H]12 [abiraterone] |  |  |  |  |  |  | EC50 (androgen receptor (AR)): 17100 nM
N=C(NCCCOc1ccc(F)cc1)Nc1ccc(I)cc1 [compound 1] | 3000 to 20000 | photo-stability issue similar to IPAG | 5–10 fold | not acutely cytotoxic | >6 | >6 | 
N=C(Nc1ccc(I)cc1)Nc1ccc(I)cc1 [compound 2] |  | photo-stability issue similar to IPAG |  |  |  |  | Sigma1 binding affinity (in words) (Sigma1): binding affinity similar to IPAG
N=C(NCCCOc1ccc(F)cc1)NCCCOc1ccc(F)cc1 [compound 3] |  |  |  |  |  |  | Sigma1 binding affinity (in words) (Sigma1): no affinity
N=C(NCCCOc1ccc(F)cc1)Nc1ccc(Cl)cc1 [compound 4, 1-(4-chlorophenyl)-3-(3-(4-fluorophenoxy)propyl)guanidine] | 3000 to 20000 |  |  | not acutely cytotoxic | >6 | >6 | V ([2]; Data set 1): 91.0 L/kg; V ([2]; Data set 2): 57.6 L/kg; AUC ([2]; Data set 1): 57 ng·h/mL; AUC ([2]; Data set 2): 71 ng·h/mL; clearance ([2]; Data set 1): 586 mL/min/kg; clearance ([2]; Data set 2): 469 mL/min/kg; dose escalation of exposure, oral 10 mg/kg to 30 mg/kg ([2]; oral route, 10 mg/kg to 30 mg/kg): < 3 fold; Cmax [3]: 691 ng/g
COc1ccc(NC(=N)NCCCOc2ccc(F)cc2)cc1 [compound 5] | 3000 to 20000 |  | 5–10 fold | not acutely cytotoxic | >6 | >6 | 
N=C(NCCCOc1ccc(F)cc1)Nc1ccc(C(F)(F)F)cc1 [compound 6] |  |  | 5–10 fold |  |  |  | 
